The supplement of paper PMC11208160

Test: recombinant UMI read abundance after kanamycin selection (control-corrected) (log10(CPM+1)); higher = more efficient recombination; extreme values may be limits of the assay; sequences stand for … in AGTGCAGAGAAAATCGGCCAGTTTTCTCTGCCTGCAGTCCGCATGCCGTGGGACCCCTTGGGTTCTAACCTGTTGCCTAGATTTATGCAGCGGACTGCCTTTCTCCCAAAGTGATAAACCGG…AGGTTGGTTTCACT; site = the 11-nt donor
How it was run: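 After plating on IPTG (0.07 mM) plus kanamycin, or unselected, in two replicates, recombinant UMIs were PCR-amplified across the donor–target junction and sequenced. The cells were Escherichia coli co-electroporated with a UMI-tagged donor and donor-binding-loop pair library and a target plasmid with a fixed target and T7-inducible IS621 bridge recombinase. Values are log10(CPM+1), with CPM averaged over replicates and scaled by control-derived factors.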
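Note: IS621 bridge recombinase in Escherichia coli cells against a fixed T5 target plasmid.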

Sequence	recombinant UMI read abundance (log10)
GGAGTGGCATGGACCGGTTTTCCCGGTAATCCGTATTTGGA (site GGAGTGGCTAC)	0.0116
GGAGTGGCATGGACCGGTTTTCCCGGTAATCCGTATTTGGA (site GGAGTGGCTCC)	0.019
GGAGTGGCATGGACCGGTTTTCCCGGTAATCCGTATTTGGA (site GGAGTGGCTGC)	0
GGAGTGGCATGGACCGGTTTTCCCGGTAATCCGTATTTGGA (site GGAGTGGCTTC)	0.645
GGATATACATGGACCGGTTTTCCCGGTAATCCGTATTTGCC (site GGATAAACTGG)	0
GGATATACATGGACCGGTTTTCCCGGTAATCCGTATTTGCC (site GGATACACTGG)	0.982
GGATATACATGGACCGGTTTTCCCGGTAATCCGTATTTGCC (site GGATAGACTGG)	0.756
GGATATACATGGACCGGTTTTCCCGGTAATCCGTATTTGCC (site GGATATACTGG)	1.81
GGATCACCATGGACCGGTTTTCCCGGTAATCCGTATTTGCT (site CGATCATCTAG)	0
GGATCACCATGGACCGGTTTTCCCGGTAATCCGTATTTGCT (site GGATCACCTAG)	0.0128
GGATCAGCATGGACCGGTTTTCCCGGTAATCCGTATTTGAA (site GGATCAGCTTT)	1.19
GGATCATCATGGACCGGTTTTCCCGGTAATCCGTATTTGCC (site CGATCATCTAG)	0
GGATCATCATGGACCGGTTTTCCCGGTAATCCGTATTTGCC (site GGATCATCTGG)	0.722
GGATCGTCATGGACCGGTTTTCCCGGTAATCCGTATTTGCC (site GGATCGTCTGG)	2.05
GGATGCACATGGACCGGTTTTCCCGGTAATCCGTATTTGTA (site GAATGCACTTA)	0.31
GGATGCACATGGACCGGTTTTCCCGGTAATCCGTATTTGTA (site GCATGCACTTA)	0.0182
GGATGCACATGGACCGGTTTTCCCGGTAATCCGTATTTGTA (site GGATGCACTTA)	1.62
GGATGCACATGGACCGGTTTTCCCGGTAATCCGTATTTGTA (site GTATGCACTTA)	0.439
GGATGCTCATGGACCGGTTTTCCCGGTAATCCGTATTTGCT (site GGATGCTCTAG)	3
GGATTTACATGGACCGGTTTTCCCGGTAATCCGTATTTGAG (site GGATTTACTCT)	0.713
GGCAAATCATGGACCGGTTTTCCCGGTAATCCGTATTTGCT (site GGCAAATCTAG)	0
GGCAACCCATGGACCGGTTTTCCCGGTAATCCGTATTTGTT (site GGCAACCCTAA)	0.0163
GGCAACCCATGGACCGGTTTTCCCGGTAATCCGTATTTGTT (site GGCCACCCTAA)	0.0118
GGCAACCCATGGACCGGTTTTCCCGGTAATCCGTATTTGTT (site GGCGACCCTAA)	0.0135
GGCAACCCATGGACCGGTTTTCCCGGTAATCCGTATTTGTT (site GGCTACCCTAA)	0.0252

Sequence	recombinant UMI read abundance (log10)
GGCAATACATGGACCGGTTTTCCCGGTAATCCGTATTTGAA (site GGCAATACTTT)	0.862
GGCAATACATGGACCGGTTTTCCCGGTAATCCGTATTTGAA (site GGCAATCCTTT)	0.00332
GGCAATACATGGACCGGTTTTCCCGGTAATCCGTATTTGAA (site GGCAATGCTTT)	0
GGCAATACATGGACCGGTTTTCCCGGTAATCCGTATTTGAA (site GGCAATTCTTT)	0
GGCAATCCATGGACCGGTTTTCCCGGTAATCCGTATTTGAA (site AGCAATCCTTT)	0.00634
GGCAATCCATGGACCGGTTTTCCCGGTAATCCGTATTTGAA (site CGCAATCCTTT)	0
GGCAATCCATGGACCGGTTTTCCCGGTAATCCGTATTTGAA (site GACAATCCTTT)	0
GGCAATCCATGGACCGGTTTTCCCGGTAATCCGTATTTGAA (site GCCAATCCTTT)	0
GGCAATCCATGGACCGGTTTTCCCGGTAATCCGTATTTGAA (site GGAAATCCTTT)	0
GGCAATCCATGGACCGGTTTTCCCGGTAATCCGTATTTGAA (site GGCAAACCTTT)	0
GGCAATCCATGGACCGGTTTTCCCGGTAATCCGTATTTGAA (site GGCAACCCTTT)	0.00936
GGCAATCCATGGACCGGTTTTCCCGGTAATCCGTATTTGAA (site GGCAAGCCTTT)	0.0191
GGCAATCCATGGACCGGTTTTCCCGGTAATCCGTATTTGAA (site GGCAATACTTT)	0.0044
GGCAATCCATGGACCGGTTTTCCCGGTAATCCGTATTTGAA (site GGCAATCCTAT)	0
GGCAATCCATGGACCGGTTTTCCCGGTAATCCGTATTTGAA (site GGCAATCCTCT)	0.0139
GGCAATCCATGGACCGGTTTTCCCGGTAATCCGTATTTGAA (site GGCAATCCTGT)	0
GGCAATCCATGGACCGGTTTTCCCGGTAATCCGTATTTGAA (site GGCAATCCTTA)	0.00549
GGCAATCCATGGACCGGTTTTCCCGGTAATCCGTATTTGAA (site GGCAATCCTTC)	0.00387
GGCAATCCATGGACCGGTTTTCCCGGTAATCCGTATTTGAA (site GGCAATCCTTG)	0
GGCAATCCATGGACCGGTTTTCCCGGTAATCCGTATTTGAA (site GGCAATCCTTT)	0.434
GGCAATCCATGGACCGGTTTTCCCGGTAATCCGTATTTGAA (site GGCAATGCTTT)	0.00508
GGCAATCCATGGACCGGTTTTCCCGGTAATCCGTATTTGAA (site GGCAATTCTTT)	0
GGCAATCCATGGACCGGTTTTCCCGGTAATCCGTATTTGAA (site GGCACTCCTTT)	0
GGCAATCCATGGACCGGTTTTCCCGGTAATCCGTATTTGAA (site GGCAGTCCTTT)	0
GGCAATCCATGGACCGGTTTTCCCGGTAATCCGTATTTGAA (site GGCATTCCTTT)	0.0126

Sequence	recombinant UMI read abundance (log10)
GGCAATCCATGGACCGGTTTTCCCGGTAATCCGTATTTGAA (site GGCCATCCTTT)	0.0223
GGCAATCCATGGACCGGTTTTCCCGGTAATCCGTATTTGAA (site GGCGATCCTTT)	0
GGCAATCCATGGACCGGTTTTCCCGGTAATCCGTATTTGAA (site GGCTATCCTTT)	0.316
GGCAATCCATGGACCGGTTTTCCCGGTAATCCGTATTTGAA (site GGGAATCCTTT)	0.0169
GGCAATCCATGGACCGGTTTTCCCGGTAATCCGTATTTGAA (site GGTAATCCTTT)	0.00354
GGCAATCCATGGACCGGTTTTCCCGGTAATCCGTATTTGAA (site GTCAATCCTTT)	0.236
GGCAATCCATGGACCGGTTTTCCCGGTAATCCGTATTTGAA (site TGCAATCCTTT)	0.0119
GGCACTCCATGGACCGGTTTTCCCGGTAATCCGTATTTGAA (site GGCAATCCTTT)	0
GGCACTCCATGGACCGGTTTTCCCGGTAATCCGTATTTGAA (site GGCACTCCTTT)	0.248
GGCACTCCATGGACCGGTTTTCCCGGTAATCCGTATTTGAA (site GGCAGTCCTTT)	0.00862
GGCACTCCATGGACCGGTTTTCCCGGTAATCCGTATTTGAA (site GGCATTCCTTT)	0.00807
GGCAGGCCATGGACCGGTTTTCCCGGTAATCCGTATTTGCT (site GGCAGGCCTAG)	0.861
GGCATGACATGGACCGGTTTTCCCGGTAATCCGTATTTGCC (site GGCATGACTGG)	0
GGCCACACATGGACCGGTTTTCCCGGTAATCCGTATTTGTT (site GGCCACACTAA)	0.485
GGCCACACATGGACCGGTTTTCCCGGTAATCCGTATTTGTT (site GGCCACCCTAA)	0.035
GGCCACACATGGACCGGTTTTCCCGGTAATCCGTATTTGTT (site GGCCACGCTAA)	0.0159
GGCCACACATGGACCGGTTTTCCCGGTAATCCGTATTTGTT (site GGCCACTCTAA)	0.00795
GGCCACCCATGGACCGGTTTTCCCGGTAATCCGTATTTGAT (site GGCCACCCTAA)	0.0182
GGCCACCCATGGACCGGTTTTCCCGGTAATCCGTATTTGAT (site GGCCACCCTAC)	0.00622
GGCCACCCATGGACCGGTTTTCCCGGTAATCCGTATTTGAT (site GGCCACCCTAG)	0
GGCCACCCATGGACCGGTTTTCCCGGTAATCCGTATTTGAT (site GGCCACCCTAT)	0
GGCCAGCCATGGACCGGTTTTCCCGGTAATCCGTATTTGTA (site GGCCAGCCTTA)	0.0264
GGCCGATCATGGACCGGTTTTCCCGGTAATCCGTATTTGCG (site GGCCGATCTCG)	1.88
GGCCGATCATGGACCGGTTTTCCCGGTAATCCGTATTTGTC (site GGCCGATCTGA)	0.695
GGCCGTGCATGGACCGGTTTTCCCGGTAATCCGTATTTGCC (site GGCCGTGCTGG)	1.16
